Where “and” joins values, the source holds several entries; their conditions need not be identical. Equal entries are not always repeated. Where two headings read alike, the source gives them in different places. Values belong to the compound of their own block, whether it stands above or below them.
What was measured:
[1] = molecular target: T1, farnesoid X receptor (FXR) (Homo sapiens, UniProt Q96RI1); conditions: reference literature: sandwich-cultured human hepatocytes; cited from earlier work
T1 sequence (Q96RI1 1-486): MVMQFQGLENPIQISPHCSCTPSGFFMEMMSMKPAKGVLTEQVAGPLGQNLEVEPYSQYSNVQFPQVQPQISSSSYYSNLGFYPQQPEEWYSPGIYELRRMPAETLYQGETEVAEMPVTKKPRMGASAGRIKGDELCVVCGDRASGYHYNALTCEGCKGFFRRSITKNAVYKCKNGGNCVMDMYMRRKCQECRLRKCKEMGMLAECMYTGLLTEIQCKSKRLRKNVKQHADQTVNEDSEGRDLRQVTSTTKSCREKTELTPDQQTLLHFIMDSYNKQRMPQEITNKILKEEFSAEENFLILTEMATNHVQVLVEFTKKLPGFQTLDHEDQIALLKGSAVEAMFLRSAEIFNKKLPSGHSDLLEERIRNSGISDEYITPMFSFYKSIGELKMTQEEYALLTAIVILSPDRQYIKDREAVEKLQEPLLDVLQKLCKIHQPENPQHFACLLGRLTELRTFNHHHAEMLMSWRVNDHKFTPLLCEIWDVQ

[2] = rat
Procedure: (§1) Formulation of preparation and dosing: An appropriate amount of the test sample was precisely weighed, and mixed with an appropriate volume of a solvent to obtain a clear solution or a homogeneous suspension. The preparation was administered to animals within 4 hours after formulation. The dosage formulation would be administered by oral gavage in accordance with facility standard operating procedures. The dosage volume would be determined by the body weights of the animals collected on the morning of administering.
(§2) Blood collection: Blood (approx. 0.2 ml per point in time) would be acupunctured each time from the jugular vein of every animal into a polypropylene tube. All blood samples would be transferred to pre-cooled commercial EDTA-K2 test tubes, and kept on wet ice until they were centrifuged.
(§3) Plasma processing: Blood samples would be centrifuged (3200 rpm, 10 min) at approximately 4° C. Plasma was collected separately and transferred to pre-labeled PP tubes in wet ice at each point in time, and then immediately precipitated by ACN (6 IS) (the ratio of plasma: ACN was 1:4). Centrifugation (10 min, 12,000 rpm) was carried out again to obtain a supernatant. The supernatant was quickly frozen on dry ice and kept at −70±10° C. before LC/MS/MS analysis.
(§4) Liver processing: Liver tissues were collected at each point in time, washed twice with pre-cooled deionized water, and dried with filter paper. Liver tissues were immediately homogenized with 10-times volume of a methanol-water solution (1:2, v/v). After homogenization, a portion of liver tissue homogenate (e.g., 200 uL of homogenate) was immediately measured and delivered to an analyst. After precipitated on wet ice, the samples were centrifuged, and a supernatant was collected and stored in a refrigerator at −70±10° C. before LC-MS/MS analysis. From the remaining liver homogenate, 800 uL of the homogenate was measured as a spare.

in vivo = conditions: rat, po
Procedure: as §1, §2, §3, §4

[3] = Pharmacokinetic test: gavage to rats, active metabolites in plasma and liver by LC-MS/MS; conditions: for half-life: T1/2, rats; for half-life / Tlast: gavage of obeticholic acid
Procedure: as §1, §2, §3, §4

[4] = clinical treatment of liver diseases such as fatty liver; cited from earlier work
[5] = rat, plasma, po, 0.0576 mmol/kg

SMILES: CC[C@H]1[C@@H](O)[C@@H]2[C@H](CC[C@]3(C)[C@@H]([C@H](C)CCC(=O)NCC(=O)O)CC[C@@H]23)[C@@]2(C)CC[C@@H](O)C[C@@H]12 [Compound 4]
Effect on activation of the farnesoid X receptor (FXR) activity, compared with obeticholic acid [1]: almost the same as the effect of the obeticholic acid
In vivo active compounds in the rats after administration [2]: Compound 4
Tlast ([2]; in vivo): 24.0 h
AUC0-last ([2]; in vivo, po): 107187 ng·h/g
AUC ratio of the obeticholic acid-glycine conjugate 4 in liver/plasma ([2]; in vivo, po): 14.7
AUC(0-inf) ([2]; in vivo, po): 110040 ng·h/g
Total AUC in plasma and liver ([2]; in vivo, po): 117503
Total AUC of the Compound 4 in the liver and plasma ([2]; in vivo, po): 117503
AUC Ratio (liver/plasma) ([2]; in vivo, po, 0.0576 mmol/kg): 42.3
Kp (in vivo): 14.7
AUC(0-inf) (in vivo; 0.0576 mmol/kg): 7460 ng·h/mL
AUC(0-t) (in vivo; 0.0576 mmol/kg): 7310 ng·h/mL
Cmax (in vivo; 0.0576 mmol/kg): 788 ng/mL and 16800 ng/g
Tmax (in vivo; 0.0576 mmol/kg): 4 h
MRT inf (in vivo; 0.0576 mmol/kg, MRT0-inf): 6.1 h
MRT last (in vivo; 0.0576 mmol/kg, MRT0-last): 5.56 h
half-life (in vivo; 0.0576 mmol/kg, T1/2): 4.79 h

SMILES: CC[C@@H]1C2C[C@H](O)CC[C@]2(C)[C@H]2CC[C@]3(C)[C@@H]([C@H](C)CCC(=O)NCC(=O)OC(C)C)CC[C@H]3[C@@H]2[C@@H]1O (some centres unmarked) [Compound I-4]
In vivo active compounds in the rats after administration [2]: Compound 4
Total effective drug amount in the liver, compared with OCA ([2]; in vivo): significantly increased

SMILES: CC[C@@H]1C2C[C@H](O)CC[C@]2(C)[C@H]2CC[C@]3(C)[C@@H]([C@H](C)CCC(=O)NCC(=O)OCc4ccccc4)CC[C@H]3[C@@H]2[C@@H]1O (some centres unmarked) [Compound I-5]
In vivo active compounds in the rats after administration [2]: Compound 4
Decrease of AUC of the effective drug in the blood versus direct administration of OCA ([2]; in vivo): 84%
Increase of total AUC of Compound 4 in liver and plasma versus Compound 4 directly administered ([2]; in vivo): 28%
Total effective drug amount in the liver, compared with OCA ([2]; in vivo): significantly increased
AUC ratio of the obeticholic acid-glycine conjugate 4 in liver/plasma ([2]; in vivo, po): 18.7
Total AUC of the Compound 4 in the liver and plasma ([2]; in vivo, po): 150442

SMILES: CCOC(=O)[C@@H](N)Cc1ccc(OC(=O)CNC(=O)CC[C@@H](C)[C@H]2CC[C@H]3[C@@H]4[C@H](O)[C@H](CC)C5C[C@H](O)CC[C@]5(C)[C@H]4CC[C@]23C)cc1 (some centres unmarked) [Compound I-6]
Total effective drug amount in the liver, compared with OCA ([3]; rats, gavage, same molar dosage as OCA): significantly increased
In vivo active compounds in the rats after administration [2]: Compound 4

Kp ([3]; rat, liver and plasma (AUC ratio), po, 0.0576 mmol/kg): 0.663
Cmax ([3]; rat, liver, po, 0.0576 mmol/kg): 17900 ng/g
Tmax ([3]; rat, liver, po, 0.0576 mmol/kg): 0.5 h
half-life ([3]; rat, liver, po, 0.0576 mmol/kg, OCA in liver): 3.33 h
AUC(0-inf) [3, 5]: 50300 ng·h/mL
AUC(0-t) [3, 5]: 48100 ng·h/mL
Cmax [3, 5]: 24300 ng/mL
Tmax [3, 5]: 0.5 h
half-life ([3]; rat, plasma, po, 0.0576 mmol/kg, OCA in plasma): 4.35 h
Tlast ([3]; rats, 0.0576 mmol/kg, OCA in liver): 24.0 h
Tlast ([3]; rats, 0.0576 mmol/kg, OCA in plasma): 24.0 h
SMILES: CC[C@H]1[C@@H](O)[C@@H]2[C@H](CC[C@]3(C)[C@@H]([C@H](C)CCC(=O)O)CC[C@@H]23)[C@@]2(C)CC[C@@H](O)C[C@@H]12 [OCA, 6-α-ethylchenodeoxycholic acid]
Incidence of pruritus [4]: 63%
Incidence of rash [4]: up to 32%

SMILES: CC[C@H]1[C@@H](O)[C@@H]2[C@H](CC[C@]3(C)[C@@H]([C@H](C)CCC(=O)NCCS(=O)(=O)O)CC[C@@H]23)[C@@]2(C)CC[C@@H](O)C[C@@H]12 [OCA-Tau, reference compound]
Effect on activation of the farnesoid X receptor (FXR) activity, compared with obeticholic acid [1]: almost the same as the effect of the obeticholic acid
